Experimental data reported in PubChem BioAssay (NCI).
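Protocol summary: plate cells (96-well), add compound at 5 concentrations, incubate 48 h, interpolate endpoints linearly. The concentration for full growth arrest is given as TGI.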

Tests used:
Experiment in all cases: NCI tumour cell line growth inhibition, 48 h
SF-539 CNS = tested on: SF-539 CNS
OVCAR-8 ovarian = tested on: OVCAR-8 ovarian
NCI-H460 lung = tested on: NCI-H460 lung
SNB-78 CNS = tested on: SNB-78 CNS
HOP-62 NSCLC = tested on: HOP-62 NSCLC
SN12K1 renal = tested on: SN12K1 renal
NCI-H23 lung = tested on: NCI-H23 lung
SF-268 CNS = tested on: SF-268 CNS
SN12C renal = tested on: SN12C renal
HCT-15 colon = tested on: HCT-15 colon
DMS 273 small cell lung = tested on: DMS 273 small cell lung
SNB-75 CNS = tested on: SNB-75 CNS
HCT-116 colon = tested on: HCT-116 colon
KM12 colon = tested on: KM12 colon
A549 NSCLC = tested on: A549 NSCLC
SW-620 colon = tested on: SW-620 colon
CCRF-CEM leukemia = tested on: CCRF-CEM leukemia
SK-MEL-2 melanoma = tested on: SK-MEL-2 melanoma
OVCAR-3 ovarian = tested on: OVCAR-3 ovarian
NCI-H522 lung = tested on: NCI-H522 lung
KM20L2 colon = tested on: KM20L2 colon
P388 leukemia = tested on: P388 leukemia
OVCAR-4 ovarian = tested on: OVCAR-4 ovarian
UACC-257 melanoma = tested on: UACC-257 melanoma
RPMI-8226 leukemia = tested on: RPMI-8226 leukemia
OVCAR-5 ovarian = tested on: OVCAR-5 ovarian
K-562 leukemia = tested on: K-562 leukemia
M19-MEL melanoma = tested on: M19-MEL melanoma
UACC-62 melanoma = tested on: UACC-62 melanoma
MALME-3M melanoma = tested on: MALME-3M melanoma
SNB-19 CNS = tested on: SNB-19 CNS
LOX IMVI melanoma = tested on: LOX IMVI melanoma
MOLT-4 leukemia = tested on: MOLT-4 leukemia
XF 498 CNS = tested on: XF 498 CNS
IGROV1 ovarian = tested on: IGROV1 ovarian
SK-MEL-28 melanoma = tested on: SK-MEL-28 melanoma
MCF7 breast = tested on: MCF7 breast
COLO 205 colon = tested on: COLO 205 colon
HL-60(TB) leukemia = tested on: HL-60(TB) leukemia
UO-31 renal = tested on: UO-31 renal
DMS 114 small cell lung = tested on: DMS 114 small cell lung
SK-OV-3 ovarian = tested on: SK-OV-3 ovarian
HCC-2998 colon = tested on: HCC-2998 colon
U251 CNS = tested on: U251 CNS
HOP-18 NSCLC = tested on: HOP-18 NSCLC
SF-295 CNS = tested on: SF-295 CNS
SK-MEL-5 melanoma = tested on: SK-MEL-5 melanoma
NCI-H226 lung = tested on: NCI-H226 lung
HT29 colon = tested on: HT29 colon
HOP-92 NSCLC = tested on: HOP-92 NSCLC
P388/ADR leukemia = tested on: P388/ADR leukemia
A498 renal = tested on: A498 renal
RXF 393 renal = tested on: RXF 393 renal
NCI/ADR-RES ovarian = tested on: NCI/ADR-RES ovarian
CAKI-1 renal = tested on: CAKI-1 renal
DLD-1 colon = tested on: DLD-1 colon
EKVX NSCLC = tested on: EKVX NSCLC
ACHN renal = tested on: ACHN renal
786-0 renal = tested on: 786-0 renal
TK-10 renal = tested on: TK-10 renal
RXF-631 renal = tested on: RXF-631 renal
M14 melanoma = tested on: M14 melanoma
LXFL 529 NSCLC = tested on: LXFL 529 NSCLC

Work on `CN(C)CCNC(=O)c1cccc2ccc(-c3ccc(Br)cc3)nc12` yielded a TGI (SF-539 CNS) of 11.4 µM, a TGI (OVCAR-8 ovarian) of 4.76 µM and a TGI (NCI-H460 lung) of 2.77 µM. It also gave a TGI (SNB-78 CNS) of 22.5 µM, a TGI (HOP-62 NSCLC) of 6.09 µM and a TGI (SN12K1 renal) of 2.63 µM. The TGI (NCI-H23 lung) was 13.6 µM, the TGI (SF-268 CNS) was 19.1 µM and the TGI (SN12C renal) was 13.5 µM. For the same compound, the TGI (HCT-15 colon) was 12.5 µM, the TGI (DMS 273 small cell lung) was 5.81 µM and the TGI (SNB-75 CNS) was 10.7 µM. For the same compound, the TGI (HCT-116 colon) was 5.13 µM, the TGI (KM12 colon) was 15.5 µM and the TGI (A549 NSCLC) was 4.29 µM. The TGI (SW-620 colon) was 5.9 µM, the TGI (CCRF-CEM leukemia) was 7.75 µM and the TGI (SK-MEL-2 melanoma) was 9.25 µM. The TGI (OVCAR-3 ovarian) was 12.6 µM, the TGI (NCI-H522 lung) was 4.21 µM and the TGI (KM20L2 colon) was 11.5 µM. For the same compound, the TGI (P388 leukemia) was 8.48 µM, the TGI (OVCAR-4 ovarian) was 8.5 µM and the TGI (UACC-257 melanoma) was 10.7 µM. For the same compound, the TGI (RPMI-8226 leukemia) was 5.93 µM, the TGI (OVCAR-5 ovarian) was 10.2 µM and the TGI (K-562 leukemia) was 9.2 µM. It also gave a TGI (M19-MEL melanoma) of 6.15 µM, a TGI (UACC-62 melanoma) of 3.6 µM and a TGI (MALME-3M melanoma) of 8.68 µM. It also gave a TGI (SNB-19 CNS) of 16.7 µM, a TGI (LOX IMVI melanoma) of 4.82 µM and a TGI (MOLT-4 leukemia) of 1.48 µM. It also gave a TGI (XF 498 CNS) of 6.94 µM, a TGI (IGROV1 ovarian) of 13.2 µM and a TGI (SK-MEL-28 melanoma) of 13.2 µM. For the same compound, the TGI (MCF7 breast) was 13.8 µM, the TGI (COLO 205 colon) was 2.54 µM and the TGI (HL-60(TB) leukemia) was 4.2 µM. The TGI (UO-31 renal) was 3.99 µM, the TGI (DMS 114 small cell lung) was 9.8 µM and the TGI (SK-OV-3 ovarian) was 10.6 µM. The TGI (HCC-2998 colon) was 6.32 µM, the TGI (U251 CNS) was 12.2 µM and the TGI (HOP-18 NSCLC) was 8.25 µM. It also gave a TGI (SF-295 CNS) of 14.8 µM, a TGI (SK-MEL-5 melanoma) of 2.92 µM and a TGI (NCI-H226 lung) of 4.82 µM. For the same compound, the TGI (HT29 colon) was 7.24 µM, the TGI (HOP-92 NSCLC) was 8.43 µM and the TGI (P388/ADR leukemia) was 4.44 µM. It also gave a TGI (A498 renal) of 5.49 µM, a TGI (RXF 393 renal) of 13.1 µM and a TGI (NCI/ADR-RES ovarian) of 5.89 µM. The TGI (CAKI-1 renal) was 7.15 µM, the TGI (DLD-1 colon) was 10.8 µM and the TGI (EKVX NSCLC) was 9.08 µM.

In the case of `Nc1nc(N)c(CCCCc2ccccc2)c(C=O)n1`, the TGI (SF-539 CNS) is reported as 36.3 µM, the TGI (OVCAR-8 ovarian) is reported as 45 µM and the TGI (NCI-H460 lung) is reported as > 100 µM. The TGI (SNB-78 CNS) was 81.6 µM, the TGI (HOP-62 NSCLC) was > 100 µM and the TGI (NCI-H23 lung) was 41.3 µM. The TGI (ACHN renal) was 51.6 µM, the TGI (SF-268 CNS) was 43.3 µM and the TGI (SN12C renal) was 39.1 µM. The TGI (786-0 renal) was 29.4 µM, the TGI (TK-10 renal) was 93 µM and the TGI (RXF-631 renal) was > 100 µM. It also gave a TGI (HCT-15 colon) of 45.4 µM, a TGI (DMS 273 small cell lung) of 39.1 µM and a TGI (SNB-75 CNS) of 38 µM. The TGI (HCT-116 colon) was 27.9 µM, the TGI (KM12 colon) was 40.8 µM and the TGI (A549 NSCLC) was > 100 µM. For the same compound, the TGI (SW-620 colon) was 30.9 µM, the TGI (CCRF-CEM leukemia) was 40.1 µM and the TGI (SK-MEL-2 melanoma) was 40.3 µM. The TGI (OVCAR-3 ovarian) was 32.6 µM, the TGI (KM20L2 colon) was 90 µM and the TGI (OVCAR-4 ovarian) was 70.6 µM. The TGI (UACC-257 melanoma) was 33.3 µM, the TGI (RPMI-8226 leukemia) was 41.2 µM and the TGI (OVCAR-5 ovarian) was > 100 µM. It also gave a TGI (K-562 leukemia) of 24.3 µM, a TGI (M19-MEL melanoma) of 29.5 µM and a TGI (UACC-62 melanoma) of 30.8 µM. For the same compound, the TGI (MALME-3M melanoma) was 36.3 µM, the TGI (SNB-19 CNS) was 38.3 µM and the TGI (LOX IMVI melanoma) was 32.8 µM. It also gave a TGI (M14 melanoma) of 44.1 µM, a TGI (IGROV1 ovarian) of 38.1 µM and a TGI (SK-MEL-28 melanoma) of 32.3 µM. The TGI (COLO 205 colon) was > 100 µM, the TGI (UO-31 renal) was 45.4 µM and the TGI (DMS 114 small cell lung) was 34.4 µM. The TGI (SK-OV-3 ovarian) was 95.5 µM, the TGI (HCC-2998 colon) was 76.6 µM and the TGI (U251 CNS) was 49.6 µM. The TGI (HOP-18 NSCLC) was 89.2 µM, the TGI (SF-295 CNS) was 64.7 µM and the TGI (SK-MEL-5 melanoma) was 34.9 µM. The TGI (NCI-H226 lung) was 53.7 µM, the TGI (HT29 colon) was 26.5 µM and the TGI (A498 renal) was > 100 µM. For the same compound, the TGI (CAKI-1 renal) was > 100 µM, the TGI (DLD-1 colon) was 46.2 µM and the TGI (EKVX NSCLC) was 46.4 µM.

In the case of `CCc1cc(C)cc2[n+]1CC=C2`, the TGI (SF-539 CNS) is reported as 95.6 µM, the TGI (OVCAR-8 ovarian) is reported as > 100 µM and the TGI (NCI-H460 lung) is reported as 93.9 µM. For the same compound, the TGI (SNB-78 CNS) was > 100 µM, the TGI (HOP-62 NSCLC) was 51.3 µM and the TGI (NCI-H23 lung) was 53.8 µM. For the same compound, the TGI (ACHN renal) was 35.4 µM, the TGI (SF-268 CNS) was > 100 µM and the TGI (SN12C renal) was 78.6 µM. The TGI (786-0 renal) was > 100 µM, the TGI (TK-10 renal) was > 100 µM and the TGI (DMS 273 small cell lung) was 6.55 µM. The TGI (SNB-75 CNS) was 70.6 µM, the TGI (HCT-116 colon) was 48.2 µM and the TGI (LXFL 529 NSCLC) was 79.2 µM. For the same compound, the TGI (KM12 colon) was > 100 µM, the TGI (A549 NSCLC) was 78.6 µM and the TGI (SW-620 colon) was > 100 µM. For the same compound, the TGI (SK-MEL-2 melanoma) was 40.2 µM, the TGI (NCI-H522 lung) was 51.9 µM and the TGI (KM20L2 colon) was 95.6 µM. The TGI (OVCAR-4 ovarian) was > 100 µM, the TGI (UACC-257 melanoma) was 39.7 µM and the TGI (OVCAR-5 ovarian) was 56.6 µM. The TGI (M19-MEL melanoma) was 52.4 µM, the TGI (MALME-3M melanoma) was 67.5 µM and the TGI (SNB-19 CNS) was > 100 µM. The TGI (LOX IMVI melanoma) was > 100 µM, the TGI (M14 melanoma) was 80.7 µM and the TGI (XF 498 CNS) was 20.4 µM. For the same compound, the TGI (SK-MEL-28 melanoma) was > 100 µM, the TGI (COLO 205 colon) was 81.5 µM and the TGI (HL-60(TB) leukemia) was 12.8 µM. The TGI (UO-31 renal) was 68.9 µM, the TGI (DMS 114 small cell lung) was 44.3 µM and the TGI (HCC-2998 colon) was > 100 µM. The TGI (U251 CNS) was > 100 µM, the TGI (HOP-18 NSCLC) was 0.0991 µM and the TGI (SF-295 CNS) was > 100 µM. It also gave a TGI (NCI-H226 lung) of 80.8 µM, a TGI (HT29 colon) of 75.2 µM and a TGI (HOP-92 NSCLC) of 45 µM. For the same compound, the TGI (RXF 393 renal) was > 100 µM, the TGI (CAKI-1 renal) was > 100 µM and the TGI (EKVX NSCLC) was 87.9 µM.
